The values that follow are results of earlier work, collected in patent US4390710A, “Catalyst system for manufacturing p-chlorophenyl-N-methyl carbamate” (PPG Industries, Inc., priority 1981, dated 1983).

For the data set the following is noted: organic herbicides such as isopropyl-N-(3-chlorophenyl) carbamate and isopropyl-N-phenyl carbamate.

Regarding `CNC(=O)Oc1ccc(Cl)cc1` [p-chlorophenyl-N-methyl carbamate], the “extending the soil life of organic herbicides” value is on record as “capable of extending the soil life of many organic herbicides”.
